Data on 60 molecules can be found in the METLIN SMRT retention time set (Domingo-Almenara et al. 2019).

The data set in a line: gradient 5% acetonitrile 3 min, to 50% in 2 min, to 85% in 15 min, held 3 min, 100 µL/min. As to conditions: column: Zorbax Extend-C18 2.1 x 50 mm; eluents: water / acetonitrile, 0.1% formic acid. The gist of the method: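 The system's dead and dwell volumes were 40 μL and 900 μL, with a Zorbax Extend-C18 column (2.1 × 50 mm, 1.8 μm) run at 100 μL/min in water and acetonitrile containing 0.1% formic acid each. Pure standards were analyzed in mixtures of ~100 molecules by HPLC–quadrupole time-of-flight mass spectrometry in positive and negative ionization mode. Retention time was assigned from computationally picked, manually inspected adduct peaks.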
`O=C(c1ccc(F)cc1)N1CCN(c2nnc3ccccn23)CC1` yielded an RP-LC retention time of 613 s.

`CCc1nc2c(NC(=O)c3ccc(F)c(Cl)c3)cccn2n1` yielded an RP-LC retention time of 924 s.

`COc1cccc(C(=O)N2CCN=C2N2CCCC2)c1OC`: the RP-LC retention time came to 614 s.

As to `Cc1cc(C)cc(NC(=O)Cn2ncc3c(N4CCN(c5ccccn5)CC4)ncnc32)c1`, the RP-LC retention time was 606 s.

Consider `CCCNC(=O)C1CCN(c2ccc(SCC(=O)Nc3ccc(C(F)(F)F)cc3)nn2)CC1`, for which the RP-LC retention time turned out to be 728 s.

`O=C(Cn1nc2n(c1=O)CCCC2)Nc1ccc(F)c(Cl)c1` gave an RP-LC retention time of 670 s.

As for `COC(=O)Cn1c(C)cc(=O)n2nc(-c3ccc(Cl)cc3)nc12`, the RP-LC retention time came to 793 s.

`CC1CCN(CCCNc2nc3ccncc3n(Cc3ccccc3)c2=O)CC1` returned an RP-LC retention time of 731 s.

Regarding `C[C@@H]1CN(C(=O)c2ccoc2)C[C@H]1c1nc(-c2ccccc2)no1`, the RP-LC retention time was 879 s.

Regarding `CC(C)c1ccc(N2C(=O)C3N=NN(Cc4nc(-c5cccc(Br)c5)no4)C3C2=O)cc1` (stereo not given), the RP-LC retention time was 1170 s.

`CCn1cc(S(=O)(=O)Nc2ccc(OC)c(Cl)c2)c2cccnc21`: the RP-LC retention time stood at 832 s.

In turn, `COc1ccc2nc(C(=O)NCc3ccccc3)cn2n1` registered an RP-LC retention time of 772 s.

`O=C(Nc1ccccc1Cl)N1CCN(CCn2c(-c3ccncc3)nc3cccnc32)CC1` returned an RP-LC retention time of 588 s.

Consider `COc1ccc(N2CCN(C(=O)C3CCN(c4cncnc4N(C)C)CC3)CC2)cc1`, for which the RP-LC retention time came to 602 s.

The molecule `Cc1nn(C(=O)c2cccnc2)c(C)c1Sc1ccccc1[N+](=O)[O-]` showed an RP-LC retention time of 916 s.

For the molecule `O=C(NC1CCc2nnc(C3CC3)n2CC1)c1cccs1` (stereo not given), the RP-LC retention time was 589 s.

On to `Cc1cc(C)cc(NC(=O)Cc2csc3nc(-c4ccc(C)c(C)c4)cn23)c1`, for which the RP-LC retention time was 966 s.

`N#Cc1ccsc1NC(=O)C1CCN(S(=O)(=O)c2ccc(Cl)s2)CC1` displayed an RP-LC retention time of 906 s.

Consider `Cc1cnc(C2CN(C(=O)C3(C)CCCCC3)C2)n1Cc1ccncc1`, for which the RP-LC retention time came out at 566 s.

Take `NC(=O)C1CCN(C(=O)Cn2c(-c3cccs3)cc3ccccc32)CC1`: the RP-LC retention time worked out at 744 s.

`O=C(COc1ccc(F)cc1)Nc1ccc2c(c1)N(C(=O)c1ccco1)CCC2`: the RP-LC retention time was 712 s.

`Cc1nc(OCC(=O)NCc2ccc(Cl)cc2)c2c(C)c(C)oc2n1` gave an RP-LC retention time of 941 s.

For the molecule `Cc1ccc(Nc2cc(C)nc(N3CCN(C(=O)c4ccco4)CC3)n2)cc1`, the RP-LC retention time worked out at 590 s.

With `CCNC(=O)c1ccc(-c2nc3cc(NS(=O)(=O)c4cccs4)ccc3n2C)cc1`, the RP-LC retention time was 630 s.

`CC1(C(=O)Nc2ccc(F)c(Cl)c2)Oc2cccnc2NC1=O` (stereo not given) gave an RP-LC retention time of 730 s.

`COc1ccc(-n2c(CN3CCN(C(=O)Nc4cc(F)ccc4F)CC3)nc3cccnc32)cc1` yielded an RP-LC retention time of 689 s.

Molecule `CCn1c(CCNC(=O)c2ccc(N(C)C)cc2)nc2cccnc21` gave an RP-LC retention time of 625 s.

`NCCc1nc(-c2ccccc2)cs1`: the RP-LC retention time was determined as 550 s.

`O=C(NCc1ccco1)c1ccc2c(c1)CCCN2C(=O)c1cccc(Cl)c1` returned an RP-LC retention time of 889 s.

Regarding `OC[C@@H]1CN(Cc2ccc(OC(F)(F)F)cc2)C[C@H]1c1ccncc1`, the RP-LC retention time turned out to be 521 s.

As for `CCOC(=O)c1ccc2nc(C(F)(F)F)nc(NCCc3ccc(OC)cc3)c2c1`, the RP-LC retention time worked out at 1240 s.

As for `Cc1ccc2nc(C(=O)NCc3ccccc3Cl)cn2c1`, the RP-LC retention time amounted to 718 s.

Take `CCOCC(=O)N1CC(c2nc(-c3ccccc3)no2)C2(CCOCC2)C1` (stereo not given): the RP-LC retention time stood at 766 s.

As for `Cc1noc(C)c1S(=O)(=O)NCC1CCN(C(=O)Nc2ccc(F)cc2)CC1`, the RP-LC retention time was found to be 742 s.

Regarding `COc1cccc(Cn2cccc(S(=O)(=O)N3CCCC3)c2=O)c1`, the RP-LC retention time was 807 s.

As to `CNC(=O)C1CCCN(c2nc3ncn(CC(=O)Nc4ccc(F)cc4F)c(=O)c3s2)C1` (stereo not given), the RP-LC retention time stood at 635 s.

For `CCCn1c(CCNC(=O)c2ccc(C)cc2)nc2cccnc21`, the RP-LC retention time came to 668 s.

In turn, `CC(C)NC(=O)C1CCCN(c2nc3ncn(CC(=O)NC4CCCCC4)c(=O)c3s2)C1` (stereo not given) registered an RP-LC retention time of 666 s.

`CCn1cc(S(=O)(=O)Nc2ccc3nc(S(=O)(=O)CC)sc3c2)cn1` returned an RP-LC retention time of 693 s.

Molecule `Cc1cccc(Cn2c(CN3CCC(C(=O)NCCc4ccco4)CC3)cc3ccccc32)c1` returned an RP-LC retention time of 800 s.

For `COC(=O)c1cc(S(=O)(=O)N2CCCC2C(=O)Nc2ccccc2C(F)(F)F)cn1C` (stereo not given), the RP-LC retention time amounted to 918 s.

`Cc1cc(F)ccc1NC(=O)Cn1c(C)cc(-c2nnc(C3CCC3)o2)c1C` yielded an RP-LC retention time of 934 s.

Molecule `O=C(c1cc(Sc2cccc(Cl)c2)nc2ccccc12)N1CCN(c2ccccn2)CC1` had an RP-LC retention time of 789 s.

`CCNc1cc(C)nc(N2CCN(C(=O)CC(C)C)CC2)n1`: the RP-LC retention time came to 613 s.

With `O=S(=O)(C1CC1)N1CCCCC1c1nncn1Cc1ccccc1` (stereo not given), the RP-LC retention time turned out to be 722 s.

`O=C(Nc1ccccc1-c1nc2ccccc2s1)c1ccno1` had an RP-LC retention time of 728 s.

`O=S(=O)(c1cc(F)ccc1F)N1CCN(Cc2cccc(F)c2)C2(CCOCC2)C1` came in with an RP-LC retention time of 886 s.

Consider `Cc1ccc(C)c(CNC(=O)c2cc3n(n2)CC(C)(C(=O)NCc2ccc(F)cc2)N(C)C3=O)c1` (stereo not given), for which the RP-LC retention time was found to be 842 s.

As for `Cc1noc(C)c1S(=O)(=O)N1C[C@@H](F)C[C@H]1C(=O)N1CCCCC1`, the RP-LC retention time is 765 s.

As to `COc1ccccc1C(=O)N1CCN(c2ccc(-c3nc(C)c(C)s3)cn2)CC1`, the RP-LC retention time turned out to be 851 s.

As for `COc1ccc(-c2noc(Cc3nnc(-c4cccc(Cl)c4)o3)n2)cc1`, the RP-LC retention time stood at 1070 s.

`O=C(NCCc1csc(-c2cccs2)n1)C1CCN(C(=O)CCc2ccccc2)CC1` registered an RP-LC retention time of 839 s.

In turn, `O=C(Cn1ncc2c(c1=O)N(CC1CC1)C(=O)CS2)NCc1ccccc1Cl` came in with an RP-LC retention time of 789 s.

The molecule `Cn1cnc(S(=O)(=O)N2CC(c3nc(-c4ccncc4)no3)C2)c1` came in with an RP-LC retention time of 590 s.

Take `O=C(c1cccs1)N1CCN(c2cnn3c(C4CC4)nnc3c2)CC1`: the RP-LC retention time was determined as 625 s.

The molecule `O=C(COc1ccccc1)Nc1cnc(N2CCOCC2)nc1` gave an RP-LC retention time of 746 s.

On to `COc1ccc(Cn2cccc(S(=O)(=O)N3CCCC3)c2=O)cc1F`, for which the RP-LC retention time stood at 843 s.

The molecule `O=C(Nc1ccc(Cl)cc1F)C1CCN(c2nccnc2Sc2ccccc2)CC1` gave an RP-LC retention time of 1190 s.

With `CC[C@H](C)Nc1c(C(=O)OC)c(=O)[nH]c2c(Cl)cccc12`, the RP-LC retention time is 783 s.

As to `CC(C)(C)C(=O)Oc1ccc(S(=O)(=O)Nc2ccccc2C(=O)NCC(=O)O)cc1`, the RP-LC retention time was 961 s.
